Tests used:
[1] = system: experimental autoimmune encephalomyelitis (EAE) mice model; experiment: Nervous function damage score in EAE mice model; assay type: in vivo, C57BL/6J mice; conditions: peak of attack, scale 0-5
Experimental: (§1) Preparation of mice model and administration: experimental autoimmune encephalomyelitis (EAE) mice model is an important tool for studying various human demyelinating diseases of nervous system. In the present experiment, the preparation of EAE mice model was performed by immunizing female C57BL/6J mice with myelin sheath oligodendroglial cell surface glycoprotein MOG35-55. That is, the mice were subcutaneously injected at dorsal part of spinal column with 0.2 mL of MOG35-55 antigen elixir, and 0.2 ml of bordetella pertussis solution was intraperitoneally injected at the time of immunization injection and 48 h thereafter, respectively. Icariin was intragastrically administered after the last injection of bordetella pertussis solution, for consecutive 3 weeks.
Nervous function test method: the ethological changes of mice were observed by two experimenters every day using blind method. Scoring standard: 0 score, absence of symptom; 1 score, decrease of tail tension, evident slight gait awkward; 2 score, disappearance of tail tension, moderate gait abnormal, deficient in maintaining gesture; 3 score, limb strength weak; 4 score, limb paralysis; 5 score, near death or died.

[2] = system: myeloid tissue myelinoclasis in EAE mice model; experiment: Myelinoclasis of myeloid tissue, LFB staining, EAE mice; assay type: in vivo; conditions: scale 0-4
Experimental: as §1
Experimental objective: the myelinoclasis of myeloid tissue of EAE model mice were assayed by Luxol Fast Blue (LFB) staining, and the intervention effects of icariin on this pathological change were studied.
Experimental method: the mice were anesthetized with 10% chloral hydrate on the 29th day of experiment, fixed by perfusion of 4% paraformaldehyde, myeloid tissues were taken for making paraffin sections, section thickness […]. Stained with LFB, observed under microscope, and scored according to the following standard: 0 score, absence of myelinoclasis; 1 score, one small range of myelinoclasis; 2 score, 2 or 3 small ranges of myelinoclasis; 3 score, 1 to 2 large ranges of myelinoclasis; 4 score, large ranges of myelinoclasis accumulatively existing in 20% or more of white matter regions.

[3] = system: inflammatory cell infiltration in spinal cord tissues of EAE mice model; experiment: Inflammatory cell infiltration in spinal cord, HE staining, EAE mice; assay type: in vivo; conditions: scale 0-4
Experimental: as §1
Experimental objective: the pathological changes of spinal cord in EAE model, especially inflammatory cell infiltration situations was assayed by hematoxylin-eosin (HE) staining test, and the intervention effects of […] on these pathological changes were observed.
Experimental method: the mice were anesthetized with 10% chloral hydrate on the 28th day of experiment, fixed by perfusion of 4% paraformaldehyde, spinal cord tissues were taken for making paraffin sections, section thickness […]. Stained with HE, observed under microscope, and scored according to the following standard: 0 score, absence of cell infiltration; 1 score, spinal meninge cell infiltration; 2 score, 1 to 4 small ranges of cell infiltration around vessels; 3 score, 5 or more small ranges of cell infiltration around vessels, or one or more accumulatively substantial large range of cell infiltration; 4 score, a large number of cell infiltration ranges accumulatively existing in 20% or more of white matter regions.

IL-1 = experiment: Serum IL-1 content by ELISA, EAE mice; assay type: in vivo
Experimental: as §1
(§2) Experimental objective: interleukin-1 (IL-1) and IL-6 are important inflammatory cytokines, and have promoting effects on inflammatory reactions. This experiment used enzyme linked immunosorbent assay (ELISA) to measure contents of IL-1 and IL-6 in serums of EAE mice model, and the effects of icariin on these contents were observed.
(§3) Experimental method: mice were anesthetized with pentobarbital sodium, blood sample was taken from abdominal aorta, stood at room temperature for 2 h, centrifuged at 3000 rpm for 20 min, and supernatant was taken, stored at −80° C. for use. The operation was performed strictly according to the steps of specification of ELISA kit. Optical density was measured with ELIASA at 450 nm. The corresponding contents of IL-1 and IL-6 were calculated with the measured OD values on standard curves.

IL-6 = experiment: Serum IL-6 content by ELISA, EAE mice; assay type: in vivo
Experimental: as §1, §2, §3

[4] = system: peripheral blood CD4+ and CD8+ T cells; experiment: Peripheral blood T cell subgroup by flow cytometer, EAE mice; assay type: in vivo
Experimental: as §1
Experimental objective: one common feature of autoimmune diseases is the […]. In this experiment, the numbers of CD4+ and CD8+ cells in peripheral blood T cell subgroup of EAE mice mode were measured by flow cytometer (FACS), and the ratio of them was obtained; and the effects of icariin on these changes were observed.
Experimental method: mice were anesthetized with pentobarbital sodium, blood sample was taken from abdominal aorta, stood at room temperature for 2 h, centrifuged at 3000 rpm for 20 min, and cells were taken, added with anti-CD4+, CD8+ T cell antibodies with different markers, then the percentages of CD4+, CD8+ cells in T lymphocytes were measured by flow cytometer, and the CD4+/CD8+ T cells ratio was calculated.

CNPase = experiment: Spinal cord CNPase by Western blot, EAE mice; assay type: in vivo
Experimental: as §1
(§4) Experimental objective: myelin sheath is formed with prominences of oligodendroglial cells. CNPase, myelin basic protein (MBP) are marker proteins of mature oligodendroglial cells. The present experiment was to observe the expression of CNPase and MBP to represent the content of oligodendroglial cells in spinal cord of EAE model mice by Western blot method; and to study the effects of icariin on it.
(§5) Experimental method: the mice were anesthetized and sacrificed, fresh spinal cord was taken on ice, total protein was extracted by cleavage on ice, to prepare Western blot sample, added separately with CNPase, MBP primary antibodies and incubated, added with corresponding secondary antibodies, ECL colorated, Kodak film exposed. Pictures were analyzed with Image J software and standardized with β-actin.

[5] = system: myelin basic protein (MBP); experiment: Spinal cord MBP by Western blot, EAE mice; assay type: in vivo
Experimental: as §1, §4, §5

SMILES: COc1ccc(-c2oc3c(CC=C(C)C)c(OC4OC(CO)C(O)C(O)C4O)cc(O)c3c(=O)c2OC2OC(C)C(O)C(O)C2O)cc1 (stereo not drawn) [icariin, 3-((6-deoxymannopyranosyl)oxy)-7-(glucopyranosyloxy)-5-hydroxy-2-(4-methoxyphenyl)-8-(3-methyl-2-butenyl)-4H-1-benzopyran-4-ketone]
- Nervous function damage score ([1]; 3 mg/kg intragastric): 0.57 ± 0.49
- Nervous function damage score ([1]; 10 mg/kg intragastric): 0.32 ± 0.52
- Nervous function damage score ([1]; 30 mg/kg intragastric): 0.13 ± 0.34
- Myelinoclasis (LFB staining score) ([2]; 3 mg/kg): 0.91 ± 0.21
- Myelinoclasis (LFB staining score) ([2]; 10 mg/kg): 0.78 ± 0.16
- Myelinoclasis (LFB staining score) ([2]; 30 mg/kg): 0.66 ± 0.20
- Inflammatory cell infiltration (HE staining score) ([3]; 3 mg/kg): 2.08 ± 0.09
- Inflammatory cell infiltration (HE staining score) ([3]; 10 mg/kg): 1.58 ± 0.16
- Inflammatory cell infiltration (HE staining score) ([3]; 30 mg/kg): 1.18 ± 0.21
- IL-1 content (IL-1; 3 mg/kg): 0.119 ± 0.003 pg/mL
- IL-1 content (IL-1; 10 mg/kg): 0.114 ± 0.001 pg/mL
- IL-1 content (IL-1; 30 mg/kg): 0.113 ± 0.002 pg/mL
- IL-6 content (IL-6; 3 mg/kg): 0.147 ± 0.011 pg/mL
- IL-6 content (IL-6; 10 mg/kg): 0.142 ± 0.013 pg/mL
- IL-6 content (IL-6; 30 mg/kg): 0.126 ± 0.011 pg/mL
- CD4 + T cells ([4]; 3 mg/kg): 52.78 ± 3.30%
- CD4 +/CD8 + ratio ([4]; 3 mg/kg): 1.25 ± 0.20
- CD8 + T cells ([4]; 3 mg/kg): 42.61 ± 3.10%
- CD4 + T cells ([4]; 10 mg/kg): 58.89 ± 1.27 %
- CD4 +/CD8 + ratio ([4]; 10 mg/kg): 1.62 ± 0.06
- CD8 + T cells ([4]; 10 mg/kg): 36.43 ± 0.38 %
- CD4 + T cells ([4]; 30 mg/kg): 55.81 ± 1.41%
- CD4 +/CD8 + ratio ([4]; 30 mg/kg): 1.39 ± 0.12
- CD8 + T cells ([4]; 30 mg/kg): 40.20 ± 1.79%
- CNPase/actin Integration grey level (CNPase; 3 mg/kg): 1.16 ± 0.04
- CNPase/actin Integration grey level (CNPase; 10 mg/kg): 1.28 ± 0.07
- CNPase/actin Integration grey level (CNPase; 30 mg/kg): 1.33 ± 0.05
- MBP/actin Integration grey level ([5]; 3 mg/kg): 0.98 ± 0.13
- MBP/actin Integration grey level ([5]; 10 mg/kg): 1.07 ± 0.08
- MBP/actin Integration grey level ([5]; 30 mg/kg): 1.11 ± 0.06
